{"source": "patent US20110045076A1", "about": "“LINEAR ORDER RELEASE POLYMER” (priority 2008, published 2011)", "format_in_all_cases": "physicochemical", "key": {"[1]": {"assay": "In vitro release of dapivirine from PU rings (SC and MM) in 25:75 i-prOH:water", "conditions": "for average release rate: rings, two weeks", "description": "(§1) The release profile of dapivirine was measured from PU-SC rods for a month after which the release kinetics from rings was evaluated for two weeks to determine the correlation of drug release rate from rods to that from rings. This may enable use of rods in place of rings for release kinetics evaluation thereby minimizing the scale of materials such as ring materials, quantity of drugs and volume of sink solutions required for release studies in case of monolithic IVRs. About 2 cm length segments were cut from the solid cross-sectional dapivirine loaded PU SC rods. The dimensions (length and diameter) and weight of each segment were recorded. The segments were incubated with 5 mL 25:75 v/v i-prOH:water as the sink condition in 20 mL septa covered vials at 37° C. in a water bath shaker set at 64±2 rpm. The sink was replaced with fresh co-solvent every 24±0.5 h for 30 days. HPLC analyses were performed every 2 to 5 days and the cumulative release was calculated by integrating the area under the curve using Kaleidagraph software (Synergy Software, Reading, Pa.). The release study for each loading was performed on triplicate samples. At the end of 30 days, the segments were wiped dry and the masses and dimensions of the segments were recorded. Similarly, dapivirine release kinetics were measured from rings (20 mg/g SC, 2.5 mg/g SC, 20 mg/g MM and 2.5 mg/g MM) incubated with 50 mL of 25:75 v/v i-prOH:water mixture as sink condition in 125 mL Erlenmeyer flasks with rubber septa […].\nAt the end of each release study, the swelling ratio was calculated by using the following equation\n[formula] • where • Q=swelling ratio • Mi=mass of ring or rod segments before the release study • Mf=mass ring or rod segments after the release study"}, "[2]": {"assay": "In vitro release of dapivirine from PU-SC rods in 25:75 i-prOH:water", "description": "as §1, with “The segments were incubated with 5 mL 25:75 v/v i-prOH:water as the sink condition in 20 mL septa covered vials at 37° C. in a water bath shaker set at 64±2 rpm. The sink was replaced with fresh co-solvent every 24±0.5 h for 30 days.” left out, “The release study for each loading was performed on triplicate samples.” left out\nAt the end of each release study, the swelling ratio was calculated by using the following equation […]"}, "[3]": {"assay": "Stability of dapivirine under extrusion conditions (heating with LC/MS and NMR, DSC, extraction)", "description": "A series of experiments were conducted to confirm that dapivirine was stable in PU matrix in the extrusion process. First, the thermal stability of dapivirine at the extrusion temperature was examined and analyzed for its non-degradability as follows: dapivirine was heated at 185° C. isothermally for 2 h under air atmosphere and ^1H and ^13C NMR spectra were recorded (Mercury 400 MHz spectrometer, Varian) for the heated and unheated dapivirine. Furthermore, LC/MS analysis was performed on the heated sample and compared to non-heated controls. The MS instrumentation consisted of Micromass Quattro II Triple Quadruple Mass Spectrometer, Waters, Milford, Mass.\nSecond, a differential scanning calorimetric (DSC) scan was obtained on dapivirine from 25° C. to 230° C. at a heating rate of 10° C./min under air atmosphere with a flow rate of 40 mL/min (Model DSC821e, Mettler Toledo, Columbus, Ohio). To further confirm the stability of dapivirine in the presence of PU under extrusion conditions, DSC analyses were carried out for PU, dapivirine, and PU films loaded with dapivirine at a concentration of 200 mg/g. The high concentration of dapivirine was selected to enable detection of potential exothermic degradation peaks. The DSC spectrum was collected from 25° C. to 230° C. at the heating rate of 10° C./min as well as at an isothermal condition (175° C. for 10 minutes).\nFinally, dapivirine was extracted and quantified from extruded rods and PU pellets (both SC and MM) prior to extrusion. The test samples (100 mg of ring segments or pellets) were dissolved in 2 mL of chloroform in a 50 mL centrifuge tube in triplicate followed by precipitation of the PU by addition of 25 mL of methanol using a volumetric flask. The polymer was separated by centrifugation (1600 RCF, 5 min) and the supernatant was quantified for dapivirine content by HPLC. The caps of the centrifuge tubes were closed tightly and wrapped with Teflon tape during the process to minimize evaporation. The efficiency of the extraction of dapivirine from the PU matrix using this method was determined by quantifying the extracted dapivirine content from controls of blank PU pellets (100 mg) to which known amount of dapivirine was added. The three controls used in triplicate were 1) 100 mg of PU pellets with 2 mg of dapivirine 2) 100 mg of PU pellets with 1 mg of dapivirine and 3) 100 mg of PU pellets with 0.25 mg of dapivirine. The mixtures of PU pellets and dapivirine were then subjected to the same precipitation process and dapivirine quantification as above. A linear calibration curve generated from standards of dapivirine in isopropanol (i-prOH) was utilized for quantification of dapivirine content from extracted samples."}}, "data": [{"smiles": "Cc1cc(C)c(Nc2ccnc(Nc3ccc(C#N)cc3)n2)c(C)c1", "note": "[dapivirine, 4-[[4-[(2,4,6-trimethylphenyl)amino]pyrimidin-2-yl]amino]benzonitrile]", "values": [{"measurement": "average flux from rings (SC) higher than from rods (SC)", "setting": "[1]; 2.5 mg/g SC", "value": 18, "unit": "%"}, {"measurement": "average flux from rings (SC) higher than from rods (SC)", "setting": "[1]; 20 mg/g SC", "value": 12, "unit": "%"}, {"measurement": "release kinetics of SC rings vs MM rings", "setting": "[1]; p>0.05, unpaired two tailed t-test", "value": "no significant difference"}, {"measurement": "release rate (order)", "setting": "[1]; rings SC and MM, 25:75 i-prOH:water, 37° C.", "value": "zero order release rate"}, {"measurement": "average release rate", "setting": "[1]; 2.5 mg/g dapivirine loading, 25:75 i-prOH:water, 37° C.", "value": "64 ± 1", "unit": "µg/day"}, {"measurement": "average release rate", "setting": "[1]; 20 mg/g dapivirine loading, 25:75 i-prOH:water, 37° C.", "value": "473 ± 36", "unit": "µg/day"}, {"measurement": "release kinetics (order)", "setting": "[2]; all loadings (2.5-20 mg/g), 25:75 i-prOH:water, 37° C., one month", "value": "zero order release kinetics"}, {"measurement": "loaded dapivirine released", "setting": "[2]; at the end of 30 days", "value": "about 20%"}, {"measurement": "degradation in DSC thermogram of dapivirine", "setting": "[3]; 25° C. to 230° C., 10° C./min, air", "value": "no detectable degradation"}, {"measurement": "degradation of dapivirine (LC/MS and NMR, heated vs non-heated)", "setting": "[3]; 185° C. isothermally for 2 h under air", "value": "no detectable degradation"}, {"measurement": "degradation of dapivirine in PU under extrusion conditions (DSC)", "setting": "[3]; PU films loaded with 200 mg/g, ramp 25 to 230° C. and isothermal 175° C., extrusion 165 to 175° C.", "value": "no detectable degradation"}, {"measurement": "dapivirine content recovered from extruded rods vs SC or MM pellets prior to extrusion", "setting": "[3]; extraction, HPLC, p value>0.05, unpaired t-test", "value": "not significantly different"}, {"measurement": "solubility of dapivirine in PU matrix", "setting": "[3]; from absence of the 220° C. melting endotherm in DSC of PU films loaded at 200 mg/g", "value": "> 200", "unit": "mg/g"}]}]}
